# Where a chain is given by its changes, count along the chain named.
# Tests used:
# Experiment in all cases: two-electrode voltage clamp, X. laevis oocytes
# Type in all cases: cell-based
# fTRPA1 [1] = target: T1, fTRPA1 (Xenopus tropicalis, UniProt A0A8J0QD66); conditions: agonist
# T1 construct: gene trpa1; full-length wild type (1144 residues); X. laevis oocytes (cRNA)
# T1 sequence (A0A8J0QD66 1-1144): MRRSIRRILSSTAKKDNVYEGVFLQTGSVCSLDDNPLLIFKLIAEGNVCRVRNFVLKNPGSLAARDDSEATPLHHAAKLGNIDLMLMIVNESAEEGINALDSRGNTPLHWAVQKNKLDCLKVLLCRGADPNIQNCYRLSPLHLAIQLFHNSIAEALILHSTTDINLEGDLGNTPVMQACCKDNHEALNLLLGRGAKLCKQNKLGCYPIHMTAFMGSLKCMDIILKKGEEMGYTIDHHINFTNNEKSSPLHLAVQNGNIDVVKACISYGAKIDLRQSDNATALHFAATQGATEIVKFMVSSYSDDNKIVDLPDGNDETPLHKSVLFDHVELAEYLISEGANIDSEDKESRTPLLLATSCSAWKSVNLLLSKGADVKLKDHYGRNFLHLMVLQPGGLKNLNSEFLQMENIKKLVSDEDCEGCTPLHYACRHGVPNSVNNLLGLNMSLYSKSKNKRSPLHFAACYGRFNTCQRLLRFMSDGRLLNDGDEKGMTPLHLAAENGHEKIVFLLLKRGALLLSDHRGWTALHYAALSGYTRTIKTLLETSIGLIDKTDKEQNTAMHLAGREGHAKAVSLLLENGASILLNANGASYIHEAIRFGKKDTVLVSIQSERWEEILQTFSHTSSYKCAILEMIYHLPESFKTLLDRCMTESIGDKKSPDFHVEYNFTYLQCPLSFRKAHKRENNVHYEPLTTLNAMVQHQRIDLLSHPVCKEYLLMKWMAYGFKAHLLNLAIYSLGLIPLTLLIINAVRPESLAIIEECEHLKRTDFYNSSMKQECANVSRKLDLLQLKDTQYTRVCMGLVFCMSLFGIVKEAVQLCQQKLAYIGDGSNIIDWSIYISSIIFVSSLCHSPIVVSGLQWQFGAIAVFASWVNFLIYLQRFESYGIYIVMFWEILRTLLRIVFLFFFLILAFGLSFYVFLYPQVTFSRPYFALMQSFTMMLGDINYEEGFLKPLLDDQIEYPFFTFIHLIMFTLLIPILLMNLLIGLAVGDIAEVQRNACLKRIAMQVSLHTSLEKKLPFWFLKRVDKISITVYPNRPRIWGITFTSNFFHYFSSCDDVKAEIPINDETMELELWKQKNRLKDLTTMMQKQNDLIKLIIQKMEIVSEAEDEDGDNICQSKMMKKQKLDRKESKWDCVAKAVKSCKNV
# zTRPA1b = target: T2, zTRPA1b (Danio rerio, UniProt A0A8M1N2Z4, R860N); conditions: antagonist; vs 1 mM CA; pH 7.4, 1.8 mM CaCl2, -60 mV
# T2 construct: gene trpa1b; full-length; X. laevis oocytes (cRNA)
# T2 sequence (A0A8M1N2Z4 1-1120 R860N): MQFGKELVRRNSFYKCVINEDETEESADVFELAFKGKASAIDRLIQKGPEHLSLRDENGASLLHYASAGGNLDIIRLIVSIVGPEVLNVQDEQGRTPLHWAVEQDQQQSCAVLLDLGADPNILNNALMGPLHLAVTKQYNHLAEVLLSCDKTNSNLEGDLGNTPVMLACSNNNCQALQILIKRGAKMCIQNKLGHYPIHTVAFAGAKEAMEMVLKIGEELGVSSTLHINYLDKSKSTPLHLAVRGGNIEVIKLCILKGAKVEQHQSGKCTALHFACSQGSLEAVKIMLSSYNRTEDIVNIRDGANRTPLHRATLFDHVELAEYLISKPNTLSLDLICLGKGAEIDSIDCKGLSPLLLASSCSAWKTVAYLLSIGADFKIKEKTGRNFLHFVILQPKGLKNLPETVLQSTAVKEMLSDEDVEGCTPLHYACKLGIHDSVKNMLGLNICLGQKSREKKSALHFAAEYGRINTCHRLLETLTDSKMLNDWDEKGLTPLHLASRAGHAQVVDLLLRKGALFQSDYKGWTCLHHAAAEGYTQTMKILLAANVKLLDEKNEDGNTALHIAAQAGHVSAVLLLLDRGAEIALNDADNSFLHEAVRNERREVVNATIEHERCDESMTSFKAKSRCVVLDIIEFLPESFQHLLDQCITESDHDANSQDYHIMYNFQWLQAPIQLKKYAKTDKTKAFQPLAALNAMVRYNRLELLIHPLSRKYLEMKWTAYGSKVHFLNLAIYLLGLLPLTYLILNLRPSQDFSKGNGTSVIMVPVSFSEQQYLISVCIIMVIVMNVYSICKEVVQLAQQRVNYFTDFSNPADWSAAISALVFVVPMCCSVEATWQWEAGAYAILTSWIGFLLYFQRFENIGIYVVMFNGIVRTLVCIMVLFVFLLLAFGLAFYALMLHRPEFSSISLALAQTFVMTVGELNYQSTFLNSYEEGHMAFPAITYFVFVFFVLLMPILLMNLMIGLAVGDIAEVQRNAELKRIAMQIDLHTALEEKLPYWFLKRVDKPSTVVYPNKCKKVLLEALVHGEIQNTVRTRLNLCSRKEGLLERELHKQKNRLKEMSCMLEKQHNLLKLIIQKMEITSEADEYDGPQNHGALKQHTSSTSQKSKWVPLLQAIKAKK
# hTRPA1 [2] = target: T3, hTRPA1 (Homo sapiens, UniProt O75762, N855S); conditions: antagonist; vs 0.3 mM CA; pH 7.4, 1.8 mM CaCl2, -60 mV
# T3 construct: gene TRPA1; full-length wild type (1119 residues); X. laevis oocytes (cRNA) or HEK293T cells (pcDNA3.1)
# fTRPA1 [3] = target: T4, fTRPA1 (Xenopus tropicalis, UniProt A0A8J0QD66, S880N); conditions: antagonist; vs 0.5 mM CA; pH 7.4, 1.8 mM CaCl2, -60 mV
# T4 construct: gene trpa1; full-length wild type (1144 residues); X. laevis oocytes (cRNA)
# T4 sequence (A0A8J0QD66 1-1144 S880N): T1 sequence (A0A8J0QD66 1-1144) with S880N
# hTRPA1 [4] = target: T5, hTRPA1 (Homo sapiens, UniProt O75762); conditions: agonist, non-electrophilic; pH 7.4, -60 mV
# T5 construct: gene TRPA1; full-length wild type (1119 residues); X. laevis oocytes (cRNA) or HEK293T cells (pcDNA3.1)
# T5 sequence (O75762 whole entry): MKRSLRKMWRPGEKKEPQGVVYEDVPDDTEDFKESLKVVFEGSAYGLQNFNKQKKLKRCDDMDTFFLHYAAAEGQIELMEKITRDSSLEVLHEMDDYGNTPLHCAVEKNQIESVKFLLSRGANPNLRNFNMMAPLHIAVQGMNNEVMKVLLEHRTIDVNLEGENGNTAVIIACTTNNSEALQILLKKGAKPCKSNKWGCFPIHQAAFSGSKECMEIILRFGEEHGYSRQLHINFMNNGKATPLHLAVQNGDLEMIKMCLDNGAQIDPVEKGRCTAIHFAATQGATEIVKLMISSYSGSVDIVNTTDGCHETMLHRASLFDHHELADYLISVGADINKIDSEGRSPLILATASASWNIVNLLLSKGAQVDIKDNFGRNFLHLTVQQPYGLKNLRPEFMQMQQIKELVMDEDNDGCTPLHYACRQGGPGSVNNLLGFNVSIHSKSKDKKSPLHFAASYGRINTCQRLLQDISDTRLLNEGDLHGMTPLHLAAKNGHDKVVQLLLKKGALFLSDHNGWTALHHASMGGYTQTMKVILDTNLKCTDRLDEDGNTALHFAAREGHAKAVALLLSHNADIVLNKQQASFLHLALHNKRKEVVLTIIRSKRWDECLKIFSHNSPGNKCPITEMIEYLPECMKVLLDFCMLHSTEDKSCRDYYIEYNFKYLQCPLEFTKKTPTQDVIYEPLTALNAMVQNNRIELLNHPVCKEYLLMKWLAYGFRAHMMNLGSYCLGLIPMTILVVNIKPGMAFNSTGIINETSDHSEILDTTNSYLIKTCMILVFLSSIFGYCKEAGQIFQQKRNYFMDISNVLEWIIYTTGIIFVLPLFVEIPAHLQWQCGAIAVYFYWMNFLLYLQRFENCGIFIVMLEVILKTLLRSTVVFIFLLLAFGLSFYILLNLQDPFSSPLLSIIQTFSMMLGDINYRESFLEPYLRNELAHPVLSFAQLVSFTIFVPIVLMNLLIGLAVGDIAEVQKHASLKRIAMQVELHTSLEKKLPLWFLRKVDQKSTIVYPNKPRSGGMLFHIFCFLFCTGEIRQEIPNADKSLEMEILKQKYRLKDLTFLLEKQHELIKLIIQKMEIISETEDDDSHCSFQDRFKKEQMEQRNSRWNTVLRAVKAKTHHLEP
# T3 sequence (O75762 whole entry N855S): as the sequence (O75762 whole entry) above, with N855S counted along it
structure (smiles),measurement,setting,value
"O=CC=Cc1ccccc1 [CA, cinnamaldehyde]","two-electrode voltage clamp, X. laevis oocytes","fTRPA1 [1]; 0.5 mM, covalent, pH 7.4, 1.8 mM CaCl2, -60 mV",TRPA1-mediated currents were activated by CA with approximately similar amplitude
"CC(C)c1ccc(NC(=O)Cn2cnc3c2c(=O)n(C)c(=O)n3C)cc1 [HC, HC-030031]",inhibition at 50 μM,zTRPA1b,significant reduction in current amplitudes in zTRPA1-R860N although wt-zTRPA1b showed no inhibition
same,inhibition at 50 μM,hTRPA1 [2],hTRPA1-N855S showed significantly less sensitivity to HC than wt-hTRPA1 at all concentrations examined
same,inhibition at 50 μM,fTRPA1 [3],HC reduced the CA-evoked currents in the second application in fTRPA1-S880N
Cc1ccc(C(C)C)cc1O [carvacrol],"two-electrode voltage clamp, X. laevis oocytes",hTRPA1 [4],hTRPA1 and fTRPA1 currents activated by the non-electrophilic compound carvacrol
same,"two-electrode voltage clamp, X. laevis oocytes","fTRPA1 [1]; non-electrophilic, pH 7.4, -60 mV",hTRPA1 and fTRPA1 currents activated by the non-electrophilic compound carvacrol

# Reference: PMC5118716, “Structural basis of TRPA1 inhibition by HC-030031 utilizing species-specific differences” (Scientific Reports, 2016)
